Data: US20110086826A1, “LIPOSOMAL CAMPTOTHECINS AND USES THEREOF” (TEKMIRA PHARMACEUTICALS CORPORATION, priority 2000, published 2011)

Tests used:
[1] = system: LX-1 human SCLC xenografts; test: Subcutaneous LX-1 human SCLC xenografts; settings: for % ILS (increase in lifespan) / DRD (drug related deaths) / LCK (log cell kill, gross) / MWL (maximum mean weight loss): LX-1 s.c.
Description: Topotecan was encapsulated in SM:CH (55:45) vesicles at a drug-to-lipid ratio of 0.10 (w/w) using the Mg-A23187 method as described in Experimental. All dilutions were made in sterile 0.9% saline immediately prior to injection. Drug administration was made via the lateral tail vein at 10 days post-tumor cell implantation when the tumors were 100-300 mm^3. Data points represent mean±SEM (n=6).
Topotecan was encapsulated in SM:CH (55:45) vesicles at a drug-to-lipid ratio of 0.10 (w/w) using the Mg-A23187 method as described in Experimental. All dilutions were made in sterile 0.9% saline immediately prior to injection. Drug administration was made via the lateral tail vein on day 14, 21 and 28 post-tumor cell implantation. Data points represent mean±SEM (n=6).
Tumor Models. […] Human MX-1 and LX-1 cell lines were obtained from the DCTD Tumor Repository in Frederick, Md. These cell lines were received as tumor fragments and were propagated in NCr nude mice by serial transplantation of 3×3 mm fragments. Experiments were not initiated until the cell lines had been through 3 passages in nude mice and the tumor lines were restarted when the passage number reached 10.
Efficacy Studies. […] For the MX-1 and LX-1 tumor models, tumor volume was determined by repeated perpendicular measurements of tumor dimensions and using the formula:

[2] = humans, daily for 5 consecutive days (d×5); cited from earlier work
[3] = Myelosuppression and neutropenia studies (blood CBC and differential); assay type: in vivo, ICR mice; settings: 10 mg/kg i.v.
Procedure: Myelosuppression and neutropenia studies. […] Empty vesicles were administered as a control. CBC and differential analysis was performed at Central Labs for Veterinarians (Langley, BC) to quantify cellular levels, ratios and morphology.

[4] = system: L1210 murine leukemia; test: Intravenous L1210 murine leukemia model; settings: for % ILS (increase in lifespan) / DRD (drug related deaths) / MWL (maximum mean weight loss) / TF (tumor free animals at end of study): L1210 i.v.
Procedure: FIG. 3. […] L1210 cells (10^5 cells in 200 μl) were injected i.v. into the tail vein of BDF-1 mice on day 0. […] Each group consisted of 8 animals. Data is from NCTEF-005.
In the above formula, MTD is the maximum tolerated dose, defined as that dose that causes a mean weight loss of 20% in a group of animals; and MED is the minimal effective dose, defined as the dose that produces an optimal % T/C value of ≦40 in the solid tumor models or an % ILS of 50±10% in the survival models.

[5] = MTD studies (weight loss over time); settings: if the drug was infused over 5-10 minutes
Procedure: MTD studies. MTD studies were performed in the host mouse strain corresponding to each tumor model. Single dose and multidose MID were determined by monitoring weight loss over time.

[6] = q7dx3, NCTEF-007, 10 mg/kg/dose i.v.
[7] = q7dx3, NCTEF-007, 30 mg/kg/dose i.v.
[8] = q7dx3, NCTEF-011, 10 mg/kg/dose i.v.
[9] = q7dx3, NCTEF-011, 30 mg/kg/dose i.v.
[10] = day 3 post-injection (first line of treatment)
[11] = day 21 post-injection (second line of treatment)
[12] = L1210, single i.v. dose, highest dose of free topotecan

In the case of CC[C@@]1(O)C(=O)OCc2c1cc1n(c2=O)Cc2cc3c(CN(C)C)c(O)ccc3nc2-1 [Free, 9-dimethylaminomethyl-10-hydroxy-camptothecin], the “anti-tumor activity (in words)” value ([1]; LX-1, initial single dose studies) is reported as “inactive at evaluated doses<30 mg/kg”, the “% ILS (increase in lifespan)” value [1, 6] is reported as 21% and the “DRD (drug related deaths)” value [1, 6] is reported as 0/6. For the same compound, the “LCK (log cell kill, gross)” value [1, 6] was 0.14, the “MWL (maximum mean weight loss)” value [1, 6] was −6.2% and the “DRD (drug related deaths)” value [1, 7] was 0/6. The “LCK (log cell kill, gross)” value [1, 7] was 1.53, the “MWL (maximum mean weight loss)” value [1, 7] was −8.8% and the “DRD (drug related deaths)” value [1, 8] was 0/6. The “MWL (maximum mean weight loss)” value [1, 8] was −3.6%, the “DRD (drug related deaths)” value [1, 9] was 2/6 and the “MWL (maximum mean weight loss)” value [1, 9] was −16.4%. The “% ILS (increase in lifespan)” value ([1]; single i.v. dose 5 mg/kg) was 0%, the “DRD (drug related deaths)” value ([1]; single i.v. dose 5 mg/kg) was 0/6 and the “LCK (log cell kill, gross)” value ([1]; single i.v. dose 5 mg/kg) was 0.13. The “MWL (maximum mean weight loss)” value ([1]; single i.v. dose 5 mg/kg) was “+”, the “% ILS (increase in lifespan)” value ([1]; single i.v. dose 10 mg/kg) was 0% and the “DRD (drug related deaths)” value ([1]; single i.v. dose 10 mg/kg) was 0/6. For the same compound, the “LCK (log cell kill, gross)” value ([1]; single i.v. dose 10 mg/kg) was 0.18, the “MWL (maximum mean weight loss)” value ([1]; single i.v. dose 10 mg/kg) was “+” and the “% ILS (increase in lifespan)” value ([1]; single i.v. dose 30 mg/kg) was 7%. The “DRD (drug related deaths)” value ([1]; single i.v. dose 30 mg/kg) was 0/6, the “LCK (log cell kill, gross)” value ([1]; single i.v. dose 30 mg/kg) was 0.27 and the “MWL (maximum mean weight loss)” value ([1]; single i.v. dose 30 mg/kg) was −1.3%. For the same compound, the MTD [2] was 1.5 mg/M^2/dose, the Baso ([3]; day 3 post-injection) was 0.057 ± 0.040 ×10^9/L and the Eosino ([3]; day 3 post-injection) was 0.031 ± 0.021 ×10^9/L. The Lympho ([3]; day 3 post-injection) was 5.90 ± 1.70 ×10^9/L, the Mono ([3]; day 3 post-injection) was 0.177 ± 0.072 ×10^9/L and the Neutro ([3]; day 3 post-injection) was 0.520 ± 0.200 ×10^9/L. The WBC ([3]; day 3 post-injection) was 6.70 ± 1.95 ×10^9/L, the Hb [3, 10] was 136 ± 05 g/L and the Hc [3, 10] was 0.444 ± 0.012 L/L. For the same compound, the PLT [3, 10] was 879 ± 145 ×10^9/L, the RBC [3, 10] was 8.47 ± 0.39 ×10^12/L and the Baso ([3]; day 21 post-injection) was 0.088 ± 0.071 ×10^9/L. The Eosino ([3]; day 21 post-injection) was 0.034 ± .016 ×10^9/L, the Lympho ([3]; day 21 post-injection) was 4.33 ± 0.93 ×10^9/L and the Mono ([3]; day 21 post-injection) was 0.247 ± 0.180 ×10^9/L. For the same compound, the Neutro ([3]; day 21 post-injection) was 0.480 ± 0.122 ×10^9/L, the WBC ([3]; day 21 post-injection) was 5.16 ± 1.18 ×10^9/L and the Hb [3, 11] was 154 ± 04 g/L. For the same compound, the Hc [3, 11] was 0.493 ± 0.014 L/L, the PLT [3, 11] was 907 ± 059 ×10^9/L and the RBC [3, 11] was 9.81 ± 0.37 ×10^12/L. The “long-term survivors (day 60)” value [4, 12] was “one long-term survivor”, the median survival [4, 12] was 13 days and the “% ILS (increase in lifespan)” value ([4]; single i.v. dose 5 mg/kg) was 11%. The “DRD (drug related deaths)” value ([4]; single i.v. dose 5 mg/kg) was 0/8, the “MWL (maximum mean weight loss)” value ([4]; single i.v. dose 5 mg/kg) was “+” and the “TF (tumor free animals at end of study)” value ([4]; single i.v. dose 5 mg/kg) was 0/8. The “% ILS (increase in lifespan)” value ([4]; single i.v. dose 10 mg/kg) was 22%, the “DRD (drug related deaths)” value ([4]; single i.v. dose 10 mg/kg) was 0/8 and the “MWL (maximum mean weight loss)” value ([4]; single i.v. dose 10 mg/kg) was “+”. The “TF (tumor free animals at end of study)” value ([4]; single i.v. dose 10 mg/kg) was 0/8, the “% ILS (increase in lifespan)” value ([4]; single i.v. dose 20 mg/kg) was 33% and the “DRD (drug related deaths)” value ([4]; single i.v. dose 20 mg/kg) was 0/8. For the same compound, the “MWL (maximum mean weight loss)” value ([4]; single i.v. dose 20 mg/kg) was “+”, the “TF (tumor free animals at end of study)” value ([4]; single i.v. dose 20 mg/kg) was 0/8 and the “DRD (drug related deaths)” value ([4]; single i.v. dose 30 mg/kg) was 0/8. For the same compound, the “MWL (maximum mean weight loss)” value ([4]; single i.v. dose 30 mg/kg) was “+”, the “TF (tumor free animals at end of study)” value ([4]; single i.v. dose 30 mg/kg) was 0/8 and the “DRD (drug related deaths)” value ([4]; single i.v. dose 40 mg/kg) was 0/8. For the same compound, the “MWL (maximum mean weight loss)” value ([4]; single i.v. dose 40 mg/kg) was “+”, the “TF (tumor free animals at end of study)” value ([4]; single i.v. dose 40 mg/kg) was 0/8 and the “true MTD (based on weight loss), estimated” value [5] was roughly 60 mg/kg.
